The results in this text go back to the supplement of paper PMC10307832.

Common to all, as to assay: relative viability (nuclei count vs DMSO), 5 days (fraction); higher = more cells survive
Compound in experiment [1]: C#Cc1cccc(Nc2ncnc3cc(OC)c(OCCCCCCC(=O)NO)cc23)c1 [CUDC-101] + CCNC(=O)c1noc(-c2cc(C(C)C)c(O)cc2O)c1-c1ccc(CN2CCOCC2)cc1 [Luminespib] (partner 0.01 µM)
The essentials:
(§1)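 Cells from lung cancer lines were seeded into 1536-well plates and, one day later, dosed by pin tool. Treatments were either a single drug or a fixed dose of an anchor drug with five library-drug doses (not always all listed) in √10 steps. After 5 days, nuclei were stained in a one-step fixation (final 0.05% Triton X-100, 1% formaldehyde, 1 ug/ml Hoechst) and counted on 4× images, and relative viability is the treated-to-vehicle nuclei ratio, as the median of duplicate plates.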

Compound in experiment [2]: C#Cc1cccc(Nc2ncnc3cc(OC)c(OCCCCCCC(=O)NO)cc23)c1 [CUDC-101] + CS(=O)(=O)N1CCN(Cc2cc3nc(-c4cccc5[nH]ncc45)nc(N4CCOCC4)c3s2)CC1 [Pictilisib] (partner 1 µM)
The essentials: as §1

Compound in experiment [3]: C1=CC=C2C(=C1)N=C(S2)C(C#N)C3=NC(=NC=C3)NCCC4=CN=CC=C4 + C[C@]1(O)C[C@@H](c2nc(-c3ccc4ccc(-c5ccccc5)nc4c3)c3c(N)nccn32)C1 [Linsitinib] (partner 1 µM)
The procedure, abridged:
as §1

Compound in experiment [4]: COc1cc(N2CCC(N3CCN(C)CC3)CC2)ccc1Nc1ncc(Cl)c(Nc2ccccc2S(=O)(=O)C(C)C)n1 [NVP-TAE684] + COc1cc2c(Oc3ccc(NC(=O)C4(C(=O)Nc5ccc(F)cc5)CC4)cc3F)ccnc2cc1OCCCN1CCOCC1 [Foretinib] (partner 0.25 µM)
The procedure, abridged: as §1

For the cell line UMC-11, the relative viability in experiment [1] (first compound 0.01 µM) amounted to 1.22; in experiment [1] (first compound 0.03162 µM), 0.879; in experiment [1] (first compound 0.1 µM), 1.03; in experiment [1] (first compound 0.3162 µM), 0.43; in experiment [1] (first compound 1 µM) it was 0.165; in experiment [2] (first compound 0.01 µM), 0.857. Besides, the relative viability turned out to be 0.775 in experiment [2] (first compound 0.03162 µM); 0.679 in experiment [2] (first compound 0.1 µM); 0.575 in experiment [2] (first compound 0.3162 µM); 0.108 in experiment [2] (first compound 1 µM); 0.809 in experiment [3] (first compound 0.005 µM); 0.968 in experiment [3] (first compound 0.01581 µM). The relative viability in experiment [3] (first compound 0.05 µM) was 0.967; in experiment [3] (first compound 0.1581 µM), 1.1; in experiment [3] (first compound 0.5 µM), 0.917; in experiment [4] (first compound 0.2 µM) it was 1.03; in experiment [4] (first compound 0.6325 µM), 0.926; in experiment [4] (first compound 2 µM) it was 0.334.
